Our source for the residual activity values is ChEMBL document CHEMBL4507268 (2021).

Common to all, as to conditions: Compound concentration 1000.0 nM
In assay [1] the target is RAC-alpha serine/threonine-protein kinase (Homo sapiens) (UniProt P31749).
The target of assay [2] is Mitotic checkpoint serine/threonine-protein kinase BUB1 (Homo sapiens) (UniProt O43683).
In assay [3] the target is Calcium/calmodulin-dependent protein kinase type II subunit alpha (Homo sapiens) (UniProt Q9UQM7).
In assay [4] the target is Ephrin type-B receptor 6 (Homo sapiens) (UniProt O15197).
Chain of Ephrin type-B receptor 6 (Homo sapiens) (O15197 whole entry): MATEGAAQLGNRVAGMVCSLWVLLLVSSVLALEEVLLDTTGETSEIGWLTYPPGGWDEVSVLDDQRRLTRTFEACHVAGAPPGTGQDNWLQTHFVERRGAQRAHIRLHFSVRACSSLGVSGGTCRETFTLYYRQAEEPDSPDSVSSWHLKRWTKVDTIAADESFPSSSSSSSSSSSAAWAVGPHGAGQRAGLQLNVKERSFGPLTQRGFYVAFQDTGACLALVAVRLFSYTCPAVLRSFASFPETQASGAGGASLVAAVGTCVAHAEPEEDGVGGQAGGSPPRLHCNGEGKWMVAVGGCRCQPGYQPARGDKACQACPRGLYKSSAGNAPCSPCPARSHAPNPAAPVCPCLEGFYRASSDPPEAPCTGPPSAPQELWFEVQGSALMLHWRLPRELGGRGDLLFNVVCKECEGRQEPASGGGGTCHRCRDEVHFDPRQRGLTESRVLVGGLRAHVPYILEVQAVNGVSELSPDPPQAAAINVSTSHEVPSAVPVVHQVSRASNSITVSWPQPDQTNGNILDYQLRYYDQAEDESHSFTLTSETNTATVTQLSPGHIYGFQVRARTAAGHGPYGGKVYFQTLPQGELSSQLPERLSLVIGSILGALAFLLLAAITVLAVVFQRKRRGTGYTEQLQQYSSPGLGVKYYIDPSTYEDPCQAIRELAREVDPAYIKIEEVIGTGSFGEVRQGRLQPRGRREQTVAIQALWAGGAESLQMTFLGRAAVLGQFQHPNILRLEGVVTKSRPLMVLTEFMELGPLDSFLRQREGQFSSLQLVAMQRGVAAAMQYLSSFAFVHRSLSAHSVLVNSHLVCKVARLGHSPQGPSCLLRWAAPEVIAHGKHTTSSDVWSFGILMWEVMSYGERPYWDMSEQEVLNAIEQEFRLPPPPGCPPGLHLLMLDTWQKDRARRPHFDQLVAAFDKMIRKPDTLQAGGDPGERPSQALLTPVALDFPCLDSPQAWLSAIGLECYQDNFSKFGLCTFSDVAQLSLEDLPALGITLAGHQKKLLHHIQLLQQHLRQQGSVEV
Assay [5] has as its target T1, Tyrosine-protein kinase ITK/TSK (Homo sapiens) (UniProt Q08881).
T1 sequence (whole entry): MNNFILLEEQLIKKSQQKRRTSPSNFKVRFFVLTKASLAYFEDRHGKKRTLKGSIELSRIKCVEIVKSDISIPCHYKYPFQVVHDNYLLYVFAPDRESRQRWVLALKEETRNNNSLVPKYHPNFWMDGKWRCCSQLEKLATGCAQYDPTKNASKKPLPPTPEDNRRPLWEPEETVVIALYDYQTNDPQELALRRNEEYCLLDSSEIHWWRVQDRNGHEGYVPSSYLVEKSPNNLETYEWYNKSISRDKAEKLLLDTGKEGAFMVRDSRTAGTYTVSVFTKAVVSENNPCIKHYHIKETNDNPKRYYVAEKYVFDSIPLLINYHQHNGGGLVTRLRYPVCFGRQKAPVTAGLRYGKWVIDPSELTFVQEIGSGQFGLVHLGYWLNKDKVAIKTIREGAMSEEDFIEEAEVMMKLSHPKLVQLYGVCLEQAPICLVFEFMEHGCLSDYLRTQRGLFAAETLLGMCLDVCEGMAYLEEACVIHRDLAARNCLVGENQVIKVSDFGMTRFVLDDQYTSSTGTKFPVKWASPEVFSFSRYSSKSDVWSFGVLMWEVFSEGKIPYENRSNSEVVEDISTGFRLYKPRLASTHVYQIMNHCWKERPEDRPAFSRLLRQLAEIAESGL

Assay [6] concerns the target T2, MAP kinase-activated protein kinase 5 (Homo sapiens) (UniProt Q8IW41).
T2 sequence (whole entry): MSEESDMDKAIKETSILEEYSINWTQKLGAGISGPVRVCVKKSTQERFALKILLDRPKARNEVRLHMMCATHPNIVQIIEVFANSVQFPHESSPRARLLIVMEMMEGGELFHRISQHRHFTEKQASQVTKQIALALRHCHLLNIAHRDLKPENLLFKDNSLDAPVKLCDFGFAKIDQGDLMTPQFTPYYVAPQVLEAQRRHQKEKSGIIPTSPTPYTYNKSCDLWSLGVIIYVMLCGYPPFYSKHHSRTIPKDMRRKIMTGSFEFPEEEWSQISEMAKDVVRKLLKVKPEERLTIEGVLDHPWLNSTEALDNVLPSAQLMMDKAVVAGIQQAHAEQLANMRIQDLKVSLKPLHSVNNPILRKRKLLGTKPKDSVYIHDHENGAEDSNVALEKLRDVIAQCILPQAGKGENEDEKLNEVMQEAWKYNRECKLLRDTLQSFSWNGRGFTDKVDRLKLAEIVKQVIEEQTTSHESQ

Assay [7] has as its target T3, Serine/threonine-protein kinase Nek9 (Homo sapiens) (UniProt Q8TD19).
T3 sequence (whole entry): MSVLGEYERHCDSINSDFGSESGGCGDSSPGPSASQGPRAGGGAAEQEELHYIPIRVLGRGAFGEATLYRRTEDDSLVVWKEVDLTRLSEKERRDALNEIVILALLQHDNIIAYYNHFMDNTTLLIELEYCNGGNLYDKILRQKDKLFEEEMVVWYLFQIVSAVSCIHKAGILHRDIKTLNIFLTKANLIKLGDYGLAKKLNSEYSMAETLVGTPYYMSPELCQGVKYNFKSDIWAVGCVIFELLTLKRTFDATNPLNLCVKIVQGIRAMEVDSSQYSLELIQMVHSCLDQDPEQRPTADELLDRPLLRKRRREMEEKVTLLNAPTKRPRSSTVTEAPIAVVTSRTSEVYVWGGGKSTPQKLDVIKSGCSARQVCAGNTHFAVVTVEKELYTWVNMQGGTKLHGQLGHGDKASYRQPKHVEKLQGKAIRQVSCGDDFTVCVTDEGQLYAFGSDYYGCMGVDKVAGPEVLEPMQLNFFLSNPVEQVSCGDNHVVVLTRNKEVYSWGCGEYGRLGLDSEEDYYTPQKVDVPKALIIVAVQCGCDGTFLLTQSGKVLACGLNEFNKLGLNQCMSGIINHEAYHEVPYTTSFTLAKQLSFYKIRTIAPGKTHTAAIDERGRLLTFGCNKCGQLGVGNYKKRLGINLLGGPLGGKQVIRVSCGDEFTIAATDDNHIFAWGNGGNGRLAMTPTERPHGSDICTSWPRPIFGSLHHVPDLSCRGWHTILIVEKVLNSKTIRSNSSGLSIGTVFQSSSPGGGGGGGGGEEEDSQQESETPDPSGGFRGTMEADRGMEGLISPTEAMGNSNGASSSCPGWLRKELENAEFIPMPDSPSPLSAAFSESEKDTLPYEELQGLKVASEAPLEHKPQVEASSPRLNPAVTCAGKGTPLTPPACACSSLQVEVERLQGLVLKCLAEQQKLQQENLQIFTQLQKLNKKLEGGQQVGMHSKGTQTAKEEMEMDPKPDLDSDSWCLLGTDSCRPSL

Assay [8] has as its target Serine/threonine-protein kinase PLK3 (Homo sapiens) (UniProt Q9H4B4).
Assay [9] has as its target Ribosomal protein S6 kinase beta-1 (Homo sapiens) (UniProt P23443).

The structures appear in SMILES notation.

Chain of Calcium/calmodulin-dependent protein kinase type II subunit alpha (Homo sapiens) (Q9UQM7 whole entry): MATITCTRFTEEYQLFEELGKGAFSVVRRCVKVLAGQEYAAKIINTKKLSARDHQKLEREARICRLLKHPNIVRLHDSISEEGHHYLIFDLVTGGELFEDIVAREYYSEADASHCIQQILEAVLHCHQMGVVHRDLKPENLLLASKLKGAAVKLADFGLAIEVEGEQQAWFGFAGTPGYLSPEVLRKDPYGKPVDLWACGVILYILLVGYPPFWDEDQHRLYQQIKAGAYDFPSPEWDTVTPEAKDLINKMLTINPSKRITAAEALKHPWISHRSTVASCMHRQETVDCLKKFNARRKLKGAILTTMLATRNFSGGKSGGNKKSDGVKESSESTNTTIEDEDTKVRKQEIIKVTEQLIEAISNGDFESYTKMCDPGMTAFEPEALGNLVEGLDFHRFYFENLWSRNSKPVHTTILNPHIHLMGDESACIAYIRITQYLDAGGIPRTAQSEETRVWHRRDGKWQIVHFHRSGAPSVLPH
Chain of Mitotic checkpoint serine/threonine-protein kinase BUB1 (Homo sapiens) (O43683 whole entry, looked up): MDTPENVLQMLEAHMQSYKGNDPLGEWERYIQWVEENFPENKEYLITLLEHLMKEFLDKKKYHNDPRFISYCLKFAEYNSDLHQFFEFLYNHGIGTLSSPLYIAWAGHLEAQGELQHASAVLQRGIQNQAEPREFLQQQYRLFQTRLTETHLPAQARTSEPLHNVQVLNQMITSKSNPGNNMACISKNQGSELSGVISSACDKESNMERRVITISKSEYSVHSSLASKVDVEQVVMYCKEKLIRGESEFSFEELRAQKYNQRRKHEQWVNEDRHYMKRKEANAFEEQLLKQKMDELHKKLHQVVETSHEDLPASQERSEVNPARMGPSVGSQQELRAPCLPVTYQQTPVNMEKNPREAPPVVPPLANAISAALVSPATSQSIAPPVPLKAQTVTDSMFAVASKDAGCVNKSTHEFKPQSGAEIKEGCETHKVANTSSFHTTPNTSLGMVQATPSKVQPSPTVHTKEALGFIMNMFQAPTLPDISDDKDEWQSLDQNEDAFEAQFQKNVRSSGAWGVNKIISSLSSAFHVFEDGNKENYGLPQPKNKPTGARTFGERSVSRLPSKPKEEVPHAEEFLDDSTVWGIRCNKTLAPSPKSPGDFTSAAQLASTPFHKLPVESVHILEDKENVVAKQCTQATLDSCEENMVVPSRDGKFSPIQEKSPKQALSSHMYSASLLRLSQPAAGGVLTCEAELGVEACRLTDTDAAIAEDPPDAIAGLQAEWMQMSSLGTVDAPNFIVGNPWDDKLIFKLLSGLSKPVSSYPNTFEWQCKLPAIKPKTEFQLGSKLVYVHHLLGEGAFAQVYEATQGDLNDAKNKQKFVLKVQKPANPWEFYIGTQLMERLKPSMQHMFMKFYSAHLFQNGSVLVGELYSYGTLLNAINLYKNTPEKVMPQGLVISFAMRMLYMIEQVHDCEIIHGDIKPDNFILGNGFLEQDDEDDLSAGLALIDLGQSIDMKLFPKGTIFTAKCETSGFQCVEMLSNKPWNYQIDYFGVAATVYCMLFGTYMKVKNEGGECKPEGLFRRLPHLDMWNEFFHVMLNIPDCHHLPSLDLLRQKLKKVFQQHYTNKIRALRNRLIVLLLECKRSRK
Chain of Serine/threonine-protein kinase PLK3 (Homo sapiens) (Q9H4B4 whole entry, looked up): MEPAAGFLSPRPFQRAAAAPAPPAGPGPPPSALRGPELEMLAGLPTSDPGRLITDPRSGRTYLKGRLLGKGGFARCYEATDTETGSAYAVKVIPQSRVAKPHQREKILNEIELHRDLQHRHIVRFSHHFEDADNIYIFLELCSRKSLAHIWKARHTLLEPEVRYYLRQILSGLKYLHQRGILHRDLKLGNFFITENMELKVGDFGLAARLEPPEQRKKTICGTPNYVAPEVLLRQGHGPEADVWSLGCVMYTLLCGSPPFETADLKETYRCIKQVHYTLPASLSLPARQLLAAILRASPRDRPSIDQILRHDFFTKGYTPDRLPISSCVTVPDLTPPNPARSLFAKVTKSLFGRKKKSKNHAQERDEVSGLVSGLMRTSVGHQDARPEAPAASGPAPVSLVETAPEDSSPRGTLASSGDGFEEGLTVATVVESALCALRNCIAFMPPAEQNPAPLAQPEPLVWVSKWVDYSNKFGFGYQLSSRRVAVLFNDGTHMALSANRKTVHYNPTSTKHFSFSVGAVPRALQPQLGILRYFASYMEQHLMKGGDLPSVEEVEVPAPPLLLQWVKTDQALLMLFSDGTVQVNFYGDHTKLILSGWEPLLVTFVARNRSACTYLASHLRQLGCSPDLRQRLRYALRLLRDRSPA
Chain of Ribosomal protein S6 kinase beta-1 (Homo sapiens) (P23443 whole entry, looked up): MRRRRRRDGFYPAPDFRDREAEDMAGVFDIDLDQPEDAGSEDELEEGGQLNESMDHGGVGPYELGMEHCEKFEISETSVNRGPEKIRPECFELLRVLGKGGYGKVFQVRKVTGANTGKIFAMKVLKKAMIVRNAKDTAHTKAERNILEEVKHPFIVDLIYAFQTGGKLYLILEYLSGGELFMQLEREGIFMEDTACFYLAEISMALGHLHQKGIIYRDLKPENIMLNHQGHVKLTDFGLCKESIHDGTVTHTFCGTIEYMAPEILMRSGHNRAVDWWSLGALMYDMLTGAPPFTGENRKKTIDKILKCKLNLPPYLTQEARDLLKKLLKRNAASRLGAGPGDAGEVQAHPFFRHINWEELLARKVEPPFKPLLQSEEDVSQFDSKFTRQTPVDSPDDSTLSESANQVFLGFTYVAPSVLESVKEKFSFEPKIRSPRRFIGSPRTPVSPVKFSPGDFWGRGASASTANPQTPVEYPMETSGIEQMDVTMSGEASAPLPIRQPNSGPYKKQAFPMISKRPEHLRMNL
Chain of RAC-alpha serine/threonine-protein kinase (Homo sapiens) (P31749 whole entry): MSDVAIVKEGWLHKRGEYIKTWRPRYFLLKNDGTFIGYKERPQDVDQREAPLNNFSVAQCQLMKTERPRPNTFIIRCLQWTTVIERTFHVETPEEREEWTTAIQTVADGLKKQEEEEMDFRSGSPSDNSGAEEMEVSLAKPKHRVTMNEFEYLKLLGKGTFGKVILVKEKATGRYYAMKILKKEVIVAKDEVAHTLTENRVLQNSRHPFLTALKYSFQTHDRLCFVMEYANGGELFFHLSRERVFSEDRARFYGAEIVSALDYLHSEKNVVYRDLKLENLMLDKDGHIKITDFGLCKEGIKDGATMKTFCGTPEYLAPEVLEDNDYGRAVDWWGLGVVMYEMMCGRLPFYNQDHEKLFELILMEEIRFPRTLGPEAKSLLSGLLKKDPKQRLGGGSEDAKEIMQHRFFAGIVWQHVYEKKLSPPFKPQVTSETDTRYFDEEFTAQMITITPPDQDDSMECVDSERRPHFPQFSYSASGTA

`Cc1nc(C2CCN(C(=O)c3ccc(OC(F)(F)F)cc3N)CC2)c2ncc(N3CCN(C)CC3)cc2n1` [BAY-693]: the residual activity was 100% in assay [1]; 96% in assay [2]; 93% in assay [3]; 100% in assay [4]; 89% in assay [5]; 94% in assay [6]. Besides, the residual activity in [7] was 94%; in assay [8] it was 100%; in assay [9] it was 99%.

Regarding `CN1CCN(c2cnc3c(C4CCN(C(=O)c5ccc(OC(F)(F)F)cc5N)CC4)ncnc3c2)CC1` [BAY-885], the residual activity is 100% in [1]; 93% in assay [2]; 69% in assay [3]; 18% in assay [4]; 100% in assay [5]; 100% in [6]. The residual activity in assay [7] is 100%; in [8], 100%; in [9] it was 90%.
